The values that follow come from patent US20190269614A1, “CHEWABLE TABLET CONTAINING VITAMIN C SODIUM AND PREPARATION METHOD THEREOF” (GUANGXI SANPOTEL HEALTH INDUSTRY CO. LTD, priority 2016, published 2019).

The first series can be described thus: Lubricant trial: tabletting of vitamin C sodium chewable tablets with different lubricants. The class given is physicochemical. To be noted: granules with the named lubricant. From the text: During tabletting, in order to increase granule fluidity, and ensure good filling and even distribution of tablet density, a certain amount of lubricant needs to be added to solve the problems of poor granule fluidity and sticking during tabletting. In the experiment of the present application, tabletting conditions when magnesium stearate, micro-powder silica gel, talcum powder, sodium dodecyl sulfate and mannitol were used as the lubricant were compared, and results are shown in Table 3.
From the test results in Table 3, it can be seen that when magnesium stearate, sodium dodecyl sulfate and mannitol are used, fluidity is good and sticking during tabletting is avoided, and prepared tablets have appropriate hardness and smooth and beautiful surfaces; when micro-powder silica gel is added, fluidity is good and sticking during tabletting is avoided, but the hardness of prepared tablets is low; and when talcum powder is added, fluidity is poor and sticking occurs during tabletting, and prepared tablets have large hardness. Therefore, magnesium stearate, sodium dodecyl sulfate and mannitol are selected as the lubricant in the present application.
Regarding `OC[C@@H](O)[C@@H](O)[C@H](O)[C@H](O)CO` [mannitol], the Tabletting condition result is reported as “non-sticking”.

For the molecule `CCCCCCCCCCCCOS(=O)(=O)[O-].[Na+]` [sodium dodecyl sulfate], the Tabletting condition entry is given as “non-sticking”.

Regarding magnesium stearate, the Tabletting condition entry was “non-sticking”.

Still in this series, the particulars now being: tablets with the named lubricant.
On to `OC[C@@H](O)[C@@H](O)[C@H](O)[C@H](O)CO` [mannitol], for which the Friability was determined as 0.39% and the Hardness is given as 54 N.

In turn, `CCCCCCCCCCCCOS(=O)(=O)[O-].[Na+]` [sodium dodecyl sulfate] showed a Friability of 0.42% and a Hardness of 59 N.

Molecule magnesium stearate had a Friability of 0.34% and a Hardness of 49 N.
